# Measurements taken from patent US20080021069A1, “Receptor Function Regulating Agent” (TAKEDA PHARMACEUTICAL COMPANY LIMITED, priority 2004, published 2008).
compound,measurement,value
"CCCCOc1ccc(-n2c(NCc3ccc(Cl)cc3)nc3cc(Cl)ccc32)cc1 [Example 87, 1-(4-Butoxyphenyl)-5-chloro-N-(4-chlorobenzyl)-1H-benzimidazol-2-amine]",melting point,100 to 101 °C
"CCOCc1ccc(-n2c(SCc3ccc(Cl)cc3)nc3ccc(Cl)cc32)cc1 [Example 117, 6-Chloro-2-[(4-chlorobenzyl)thio]-1-[4-(ethoxymethyl)phenyl]-1H-benzimidazole]",melting point,95 to 96 °C
Cl.FC(F)(F)COc1ccc(-n2c(SCc3ccc(Cl)cc3)nc3ccc(Cl)cc32)cc1,melting point,106 to 107 °C
"CCCCOc1ccc(-n2c(SCc3ccc(Cl)cc3)nc3ccc(Cl)cc32)cc1 [Example 22, 1-(4-Butoxyphenyl)-6-chloro-2-[(4-chlorobenzyl)thio]-1H-benzimidazole]",melting point,96 to 97 °C
"COc1ccc(-n2c(SCc3cccc(OC)c3)nc3ccc(Cl)cc32)cc1 [Example 5, 6-Chloro-2-[(3-methoxybenzyl)thio]-1-(4-methoxyphenyl)-1H-benzimidazole]",melting point,93 to 94 °C
COc1ccc(-n2c(SCc3ccc(C(F)(F)F)nc3)nc3ccc(Cl)cc32)cn1.Cl,melting point,69 to 76 °C
"CCOC(=O)c1ccc(-n2c(SCc3ccc(Cl)cc3)nc3ccc(Cl)cc32)cc1 [Example 19, Ethyl 4-{6-chloro-2-[(4-chlorobenzyl)thio]-1H-benzimidazol-1-yl}benzoate]",melting point,100 to 101 °C
"COc1ccc(-n2c(SCc3ccccc3Cl)nc3ccc(Cl)cc32)cc1 [Example 3, 6-Chloro-2-[(2-chlorobenzyl)thio]-1-(4-methoxyphenyl)-1H-benzimidazole]",melting point,94 to 95 °C
"CCOc1ccc(-n2c(NCc3ccc(Br)cc3)nc3ccc(Cl)cc32)cc1.Cl [Example 69, N-(4-Bromobenzyl)-6-chloro-1-(4-ethoxyphenyl)-1H-benzimidazol-2-amine hydrochloride]",melting point,135 to 138 °C
"Clc1ccc(CSc2nc3cc(Cl)ccc3n2-c2ccc(OCc3ccccc3)cc2)cc1 [Example 133, 1-[4-(Benzyloxy)phenyl]-5-chloro-2-[(4-chlorobenzyl)thio]-1H-benzimidazole]",melting point,137 to 138 °C
"CN(C)C(=O)c1ccc(-n2c(SCc3ccc(Cl)cc3)nc3ccc(Cl)cc32)cc1 [Example 27, 4-{6-Chloro-2-[(4-chlorobenzyl)thio]-1H-benzimidazol-1-yl}-N,N-dimethylbenzamide]",melting point,139 to 140 °C
"COc1ccc(-n2c(SCc3ccc(Cl)cc3)nc3ccc(Cl)cc32)cc1 [Example 1, 6-Chloro-2-[(4-chlorobenzyl)thio]-1-(4-methoxyphenyl)-1H-benzimidazole]",melting point,116 to 117 °C
"CCOc1ccc(-n2c(SCc3ccc(C(=O)OC)cc3)nc3ccc(Cl)cc32)cc1 [Example 37, Methyl 4-({[6-chloro-1-(4-ethoxyphenyl)-1H-benzimidazol-2-yl]thio}methyl)benzoate]",melting point,107 to 109 °C
"COCOc1ccc(-n2c(SCc3ccccn3)nc3ccc(Cl)cc32)cc1 [Example 55, 6-Chloro-1-[4-(methoxymethoxy)phenyl]-2-[(pyridin-2-ylmethyl)thio]-1H-benzimidazole]",melting point,95 to 96 °C
"CS(=O)(=O)Oc1ccc(-n2c(SCc3ccc(Cl)cc3)nc3ccc(Cl)cc32)cc1 [Example 25, 4-{6-Chloro-2-[(4-chlorobenzyl)thio]-1H-benzimidazol-1-yl}phenyl methanesulfonate]",melting point,128 to 129 °C
"Clc1ccc(CSc2nc3ccc(Cl)cc3n2-c2ccc(-c3cnco3)cc2)cc1 [Example 136, 6-Chloro-2-[(4-chlorobenzyl)thio]-1-[4-(1,3-oxazol-5-yl)phenyl]-1H-benzimidazole]",melting point,130 to 131 °C
"CC(=O)OCCOc1ccc(-n2c(SCc3ccc(Cl)cc3)nc3ccc(Cl)cc32)cc1 [Example 15, 2-(4-{6-Chloro-2-[(4-chlorobenzyl)thio]-1H-benzimidazol-1-yl}phenoxy)ethyl acetate]",melting point,126 to 127 °C
"CCCCOc1ccc(-n2c(NCc3ccc(Br)cc3)nc3ccc(Cl)cc32)cc1 [Example 77, N-(4-Bromobenzyl)-1-(4-butoxyphenyl)-6-chloro-1H-benzimidazol-2-amine]",melting point,123 to 124 °C
"CCOc1ccc(-n2c(SCc3ccc(C(C)(C)C)cc3)nc3cccc(Cl)c32)cc1 [Example 139, 2-[(4-tert-Butylbenzyl)thio]-7-chloro-1-(4-ethoxyphenyl)-1H-benzimidazole]",melting point,175 to 176 °C
"COc1ccc(-n2c(SCc3ccccc3)nc3ccc(Cl)cc32)cc1 [Example 21, 2-(Benzylthio)-6-chloro-1-(4-methoxyphenyl)-1H-benzimidazole]",melting point,89 to 90 °C
"CCOCOc1ccc(-n2c(SCc3ccc(Cl)cc3)nc3ccc(Cl)cc32)cc1 [Example 31, 6-Chloro-2-[(4-chlorobenzyl)thio]-1-[4-(ethoxymethoxy)phenyl]-1H-benzimidazole]",melting point,130 to 131 °C
"COc1cccc(-n2c(SCc3ccc(Cl)cc3)nc3ccc(Cl)cc32)c1 [Example 17, 6-Chloro-2-[(4-chlorobenzyl)thio]-1-(3-methoxyphenyl)-1H-benzimidazole]",melting point,100 to 101 °C
"CON(C)C(=O)c1ccc(-n2c(SCc3ccc(Cl)cc3)nc3ccc(Cl)cc32)cc1 [Example 39, 4-{6-Chloro-2-[(4-chlorobenzyl)thio]-1H-benzimidazol-1-yl}-N-methoxy-N-methylbenzamide]",melting point,125 to 126 °C
"CC(C)(C)OC(=O)Nc1ccc(-n2c(SCc3ccc(Cl)cc3)nc3ccc(Cl)cc32)cc1 [Example 114, tert-Butyl (4-{6-chloro-2-[(4-chlorobenzyl)thio]-1H-benzimidazol-1-yl}phenyl)carbamate]",melting point,163 to 164 °C
"Clc1ccc(CSc2nc3ccc(Cl)cc3n2-c2ccc(OCc3ccccc3)cc2)cc1 [Example 119, 1-[4-(Benzyloxy)phenyl]-6-chloro-2-[(4-chlorobenzyl)thio]-1H-benzimidazole]",melting point,193 to 194 °C
"CC(C)Oc1ccc(-n2c(SCc3ccc(Cl)cc3)nc3ccc(Cl)cc32)cc1 [Example 23, 6-Chloro-2-[(4-chlorobenzyl)thio]-1-(4-isopropoxyphenyl)-1H-benzimidazole]",melting point,102 to 103 °C
Cl.FC(F)(F)Oc1ccc(-n2c(SCc3ccc(Cl)cc3)nc3cc(Cl)ccc32)cc1,melting point,96 to 100 °C
"CCOCOc1ccc(-n2c(SCc3ccc(Br)cc3)nc3ccc(Cl)cc32)cc1 [Example 32, 2-[(4-Bromobenzyl)thio]-6-chloro-1-[4-(ethoxymethoxy)phenyl]-1H-benzimidazole]",melting point,145 to 146 °C
"CCOC(=O)c1ccc2c(c1)nc(SCc1ccc(Cl)cc1)n2-c1ccc(OCC)cc1 [Example 107, Ethyl 2-[(4-chlorobenzyl)thio]-1-(4-ethoxyphenyl)-1H-benzimidazole-5-carboxylate]",melting point,133 to 134 °C
"FC(F)(F)COc1ccc(-n2c(NCc3ccc(Br)cc3)nc3cc(Cl)ccc32)cc1 [Example 90, N-(4-Bromobenzyl)-5-chloro-1-[4-(2,2,2-trifluoroethoxy)phenyl]-1H-benzimidazol-2-amine]",melting point,146 to 147 °C
"COCc1ccc(-n2c(SCc3ccc(Cl)cc3)nc3ccc(Cl)cc32)cc1 [Example 116, 6-Chloro-2-[(4-chlorobenzyl)thio]-1-[4-(methoxymethyl)phenyl]-1H-benzimidazole]",melting point,97 to 98 °C
"CCCCOc1ccc(-n2c(NCc3ccc(Br)cc3)nc3cc(Cl)ccc32)cc1 [Example 88, N-(4-Bromobenzyl)-1-(4-butoxyphenyl)-5-chloro-1H-benzimidazol-2-amine]",melting point,95 to 96 °C
"CCCOc1ccc(-n2c(NCc3ccc(Br)cc3)nc3cc(Cl)ccc32)cc1 [Example 84, N-(4-Bromobenzyl)-5-chloro-1-(4-propoxyphenyl)-1H-benzimidazol-2-amine]",melting point,112 to 113 °C
"COc1ccc(-n2c(SCc3ccc(Cl)cc3)nc3ccc(OC)cc32)cc1 [Example 20, 2-[(4-Chlorobenzyl)thio]-6-methoxy-1-(4-methoxyphenyl)-1H-benzimidazole]",melting point,80 to 81 °C
Cl.Clc1ccc(CSc2nc3cc(Cl)ccc3n2-c2ccc(OCC3CC3)cc2)cc1,melting point,118 to 126 °C
"OCCOc1ccc(-n2c(SCc3ccc(Cl)cc3)nc3ccc(Cl)cc32)cc1 [Example 16, 2-(4-{6-Chloro-2-[(4-chlorobenzyl)thio]-1H-benzimidazol-1-yl}phenoxy)ethanol]",melting point,113 to 114 °C
CCOc1ccc(-n2c(SCc3ccc(C(C)C)cc3)nc3ccc(Cl)cc32)cc1.Cl,melting point,96 to 100 °C
"O=C(O)c1ccc(-n2c(SCc3ccc(Cl)cc3)nc3ccc(Cl)cc32)cc1 [Example 42, 4-{6-Chloro-2-[(4-chlorobenzyl)thio]-1H-benzimidazol-1-yl}benzoic acid]",melting point,265 to 266 °C
"CCCOc1ccc(-n2c(NCc3ccc(Cl)cc3)nc3cc(Cl)ccc32)cc1 [Example 85, 5-Chloro-N-(4-chlorobenzyl)-1-(4-propoxyphenyl)-1H-benzimidazol-2-amine]",melting point,122 to 123 °C
"CCOc1ccc(-n2c(SCc3ccc(Br)cc3)nc3cccc(Cl)c32)cc1 [Example 137, 2-[(4-Bromobenzyl)thio]-7-chloro-1-(4-ethoxyphenyl)-1H-benzimidazole]",melting point,143 to 144 °C
"CCOC(=O)N1CCC(n2c(SCc3ccc(Br)cc3)nc3ccc(Cl)cc32)CC1 [Example 59, Ethyl 4-{2-[(4-bromobenzyl)thio]-6-chloro-1H-benzimidazol-1-yl}piperidine-1-carboxylate]",melting point,123 to 124 °C
"CCOc1ccc(-n2c(NCc3ccc(C(C)(C)C)cc3)nc3ccc(Cl)cc32)cc1.Cl [Example 70, N-(4-tert-Butylbenzyl)-6-chloro-1-(4-ethoxyphenyl)-1H-benzimidazol-2-amine hydrochloride]",melting point,188 to 189 °C
"CCOc1ccc(-n2c(SCc3ccc(-c4ccccc4)cc3)nc3ccc(Cl)cc32)cc1 [Example 34, 2-[(Biphenyl-4-ylmethyl)thio]-6-chloro-1-(4-ethoxyphenyl)-1H-benzimidazole]",melting point,116 to 117 °C
